Assay results from article doi:10.1101/2025.11.20.689572v1 (biorxiv, 2025).
Where two headings read alike, the source gives them in different places.

Assays:
Assay in all cases: cell-based
CHRM5 = target: T1, CHRM5 (Homo sapiens, UniProt P08912); set-up: species or system HEK293; Fluo-4 Direct calcium mobilization on FLIPR-Tetra; conditions: Assay=Calcium, agonist mode, % of control agonist
T1 sequence (P08912 1-532): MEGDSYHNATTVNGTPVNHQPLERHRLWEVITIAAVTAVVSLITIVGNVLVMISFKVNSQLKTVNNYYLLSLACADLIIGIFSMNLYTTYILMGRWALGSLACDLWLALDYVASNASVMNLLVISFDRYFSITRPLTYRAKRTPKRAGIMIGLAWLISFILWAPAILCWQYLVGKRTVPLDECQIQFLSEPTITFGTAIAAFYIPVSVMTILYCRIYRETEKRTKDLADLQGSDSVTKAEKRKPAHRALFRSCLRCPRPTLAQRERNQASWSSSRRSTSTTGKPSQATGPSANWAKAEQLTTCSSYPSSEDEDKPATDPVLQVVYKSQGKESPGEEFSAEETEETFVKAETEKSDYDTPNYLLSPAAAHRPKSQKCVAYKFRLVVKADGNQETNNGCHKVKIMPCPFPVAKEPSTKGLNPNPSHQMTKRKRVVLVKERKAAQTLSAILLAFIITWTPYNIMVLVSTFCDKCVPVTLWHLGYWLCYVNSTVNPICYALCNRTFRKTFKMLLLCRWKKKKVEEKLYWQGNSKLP

CHRM1 = target: T2, CHRM1 (Homo sapiens, UniProt P11229); set-up: species or system HEK293; Fluo-4 Direct calcium mobilization on FLIPR-Tetra; conditions: Assay=Calcium, agonist mode, % of control agonist
T2 sequence (P11229 1-460): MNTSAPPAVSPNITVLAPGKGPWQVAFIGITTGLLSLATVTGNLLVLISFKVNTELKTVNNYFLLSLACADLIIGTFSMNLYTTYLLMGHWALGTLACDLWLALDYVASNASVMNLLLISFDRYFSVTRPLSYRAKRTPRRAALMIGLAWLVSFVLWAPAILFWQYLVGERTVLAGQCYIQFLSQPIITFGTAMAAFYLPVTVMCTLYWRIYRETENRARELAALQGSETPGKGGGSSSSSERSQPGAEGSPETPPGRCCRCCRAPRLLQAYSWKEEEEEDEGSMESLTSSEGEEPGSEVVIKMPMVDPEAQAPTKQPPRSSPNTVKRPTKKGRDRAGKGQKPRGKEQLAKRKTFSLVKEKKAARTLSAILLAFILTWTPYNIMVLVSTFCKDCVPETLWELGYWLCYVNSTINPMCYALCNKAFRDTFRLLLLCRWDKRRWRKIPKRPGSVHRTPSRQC

CHRM3 = CHRM3 (Homo sapiens, UniProt P20309); set-up: species or system HEK293; Fluo-4 Direct calcium mobilization on FLIPR-Tetra; conditions: Assay=Calcium, agonist mode, % of control agonist
CHRM2 = target: T3, CHRM2 (Homo sapiens, UniProt P08172); set-up: species or system HEK293; GloSensor-22F cAMP assay, Gi-mediated inhibition of isoproterenol-stimulated cAMP; antagonist mode against agonist EC80; conditions: Assay=Gi, agonist mode, % of control agonist
T3 sequence (P08172 1-466): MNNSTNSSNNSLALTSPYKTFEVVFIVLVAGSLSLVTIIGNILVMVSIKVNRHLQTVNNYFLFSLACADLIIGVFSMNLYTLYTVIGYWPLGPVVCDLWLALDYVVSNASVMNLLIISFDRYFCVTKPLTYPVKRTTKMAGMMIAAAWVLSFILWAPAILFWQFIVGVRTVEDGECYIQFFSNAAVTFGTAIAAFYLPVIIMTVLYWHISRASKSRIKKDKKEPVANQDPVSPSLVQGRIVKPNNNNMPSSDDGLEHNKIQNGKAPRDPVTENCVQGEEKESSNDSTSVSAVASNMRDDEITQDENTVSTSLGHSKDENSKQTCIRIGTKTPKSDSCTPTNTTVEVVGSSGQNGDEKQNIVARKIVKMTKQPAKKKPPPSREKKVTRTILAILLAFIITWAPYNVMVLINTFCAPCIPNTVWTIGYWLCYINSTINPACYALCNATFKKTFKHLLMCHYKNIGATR

CHRM4 = target: T4, CHRM4 (Homo sapiens, UniProt P08173); set-up: species or system HEK293; GloSensor-22F cAMP assay, Gi-mediated inhibition of isoproterenol-stimulated cAMP; antagonist mode against agonist EC80; conditions: Assay=Gi, agonist mode, % of control agonist
T4 sequence (P08173 1-479): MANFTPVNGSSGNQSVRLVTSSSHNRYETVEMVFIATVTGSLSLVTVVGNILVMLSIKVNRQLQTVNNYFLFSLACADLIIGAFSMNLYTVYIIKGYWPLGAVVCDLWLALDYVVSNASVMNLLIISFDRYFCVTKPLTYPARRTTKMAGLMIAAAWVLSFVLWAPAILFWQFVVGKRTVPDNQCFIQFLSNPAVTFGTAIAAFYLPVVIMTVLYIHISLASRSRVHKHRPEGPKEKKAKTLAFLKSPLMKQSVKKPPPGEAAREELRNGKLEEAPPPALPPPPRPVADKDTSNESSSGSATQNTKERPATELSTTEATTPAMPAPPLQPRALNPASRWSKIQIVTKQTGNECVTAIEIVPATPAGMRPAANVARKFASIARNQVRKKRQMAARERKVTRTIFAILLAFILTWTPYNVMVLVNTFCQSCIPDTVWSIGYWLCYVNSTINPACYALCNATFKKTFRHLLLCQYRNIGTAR

[1] = HEK293, read-out: N-Desmethyl Xanomeline

Chain of CHRM3 (P20309 whole entry): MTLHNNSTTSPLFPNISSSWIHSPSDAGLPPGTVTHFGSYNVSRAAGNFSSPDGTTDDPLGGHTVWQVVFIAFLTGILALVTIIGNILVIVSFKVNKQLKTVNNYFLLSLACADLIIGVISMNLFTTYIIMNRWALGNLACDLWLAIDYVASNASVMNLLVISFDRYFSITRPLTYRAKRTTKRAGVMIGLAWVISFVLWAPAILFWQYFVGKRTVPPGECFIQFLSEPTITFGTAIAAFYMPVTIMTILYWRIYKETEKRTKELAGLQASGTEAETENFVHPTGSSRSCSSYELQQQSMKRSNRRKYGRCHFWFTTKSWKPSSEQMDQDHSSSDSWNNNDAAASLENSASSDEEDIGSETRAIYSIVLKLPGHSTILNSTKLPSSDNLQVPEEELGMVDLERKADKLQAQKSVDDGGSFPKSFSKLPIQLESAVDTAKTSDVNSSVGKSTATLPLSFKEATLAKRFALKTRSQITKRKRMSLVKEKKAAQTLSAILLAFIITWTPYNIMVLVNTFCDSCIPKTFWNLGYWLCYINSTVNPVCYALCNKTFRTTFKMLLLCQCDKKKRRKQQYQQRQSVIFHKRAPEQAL

SMILES	Emax (CHRM5; [1])	Emax (CHRM1; [1])	Emax (CHRM3; [1])	Emax (CHRM2; [1])	Emax (CHRM4; [1])	Emax (CHRM5; HEK293, read-out: Xanomeline)	Emax (CHRM1; HEK293, read-out: Xanomeline)	Emax (CHRM3; HEK293, read-out: Xanomeline)	Emax (CHRM2; HEK293, read-out: Xanomeline)	Emax (CHRM4; HEK293, read-out: Xanomeline)
CCCCCCOc1nsnc1C1=CCCNC1 [N-desmethylxanomeline]	31.9%	24.3%	39%	107%	84.4%					
CCCCCCOc1nsnc1C1=CCCN(C)C1 [Xanomeline]						35.4%	25.6%	41%	85.9%	87.2%
